Test results as given in BindingDB's records for doi:10.1021/jm701488f (2008).

experiment: Antagonist activity at human CCR2 in PBMCs assessed as inhibition of chemotaxis

IC50 [nM] | SMILES
160 | O=C(CNC(=O)c1cccc(C(F)(F)F)c1)N[C@H]1CCCC[C@H]1NC(=O)c1ccc(I)cc1
63 | Nc1ccc(C(F)(F)F)cc1C(=O)NCC(=O)N[C@H]1CCCC[C@H]1NC(=O)c1ccc(S(N)(=O)=O)cc1
0.5 | NS(=O)(=O)c1ccc(C(=O)N[C@@H]2CCCC[C@@H]2NC(=O)CNC(=O)c2cc(C(F)(F)F)ccc2NC(=O)C2CCCCC2)cc1
1200 | CSc1ccc(C(=O)N[C@@H]2CCCC[C@@H]2NC(=O)CNC(=O)c2cccc(C(F)(F)F)c2)cc1
130 | NS(=O)(=O)c1ccc(C(=O)N[C@@H]2CCCC[C@@H]2NC(=O)CNC(=O)c2cccc(C(F)(F)F)c2)cc1
